Entries after “also recorded” stand apart in the source; their conditions may differ. Like-named read-outs stand apart in the source and are kept apart here.
What was measured:
[1] = tested on: CXCR4-using HIV-1 strains; format: cell-based
[2] = target: T1, CXCR4 (Homo sapiens, UniProt P61073); assay: HTRF Tag-lite primary screening: red-CXCL12 binding to HEK293 cells expressing ST-CXCR4; conditions: single dose 6.6 µg/mL (compound final concentration in µM in brackets), HTRF ratio of compound divided by that of AMD3100 15 µM, 20 nM red-CXCL12, hit < 1.3
T1 sequence (P61073 whole entry): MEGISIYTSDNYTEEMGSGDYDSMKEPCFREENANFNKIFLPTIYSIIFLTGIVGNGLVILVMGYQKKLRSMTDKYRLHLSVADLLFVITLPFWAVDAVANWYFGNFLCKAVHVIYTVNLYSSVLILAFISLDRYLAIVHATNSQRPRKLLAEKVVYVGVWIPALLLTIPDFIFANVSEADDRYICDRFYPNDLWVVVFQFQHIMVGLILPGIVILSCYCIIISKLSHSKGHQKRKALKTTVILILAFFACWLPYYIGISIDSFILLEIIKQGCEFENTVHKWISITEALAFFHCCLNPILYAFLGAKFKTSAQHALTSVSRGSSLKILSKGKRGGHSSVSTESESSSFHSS
Source text: As a starting point of this study, we set up a high-throughput screening of 6851 compounds available at the time from the CERMN (Centre d’Etude et de Recherche sur le Médicament de Normandie) chemical library for their ability to interact with CXCR4 (see Section 3.3 for details). We applied a homogeneous cell-based binding assay using Homogeneous Time-Resolved Fluorescence resonance energy transfer (HTRF) Tag-lite technology. […] We investigated the capacity of the compounds to inhibit energy transfer between the Lumi4-Tb donor and acceptor red-CXCL12, which results in a decrease in the HTRF signal (i.e., the ratio between the acceptor and donor fluorescence signals at 665 and 620 nm, respectively). […] Each 384-well plate was analyzed independently. First, using negative and positive controls, the value of the Z′ factor [52] was determined. […]
All compounds are in DMSO at a concentration of 3.3 mg/mL (average concentration of 9.85 ± 3.7 mM). […] After a 2 h incubation at 16 °C, the fluorescence emission was measured at 620 nm and 665 nm using an excitation wavelength at 343 nm on a Safire2 (Tecan, Männedorf, Switzerland) microplate reader. The HTRF ratio was defined as following: Ratio = (Fluorescence intensity at 665 nm/Fluorescence intensity at 620 nm) × 10^4. […]

[3] = target: T1, CXCR4; assay: HTRF dilution series assay on CXCR4 (displacement of red-CXCL12); format: binding; conditions: for IC50: HEK293 ST-CXCR4 cells, red-CXCL12 20 nM, 2 h 16 °C, one-site competitive model, read-out: HTRF CXCR4-SDF1 IC50; for inhibition of HTRF at high concentrations: dilution series
Method: To obtain information on the structural requirements necessary for the interaction with CXCR4, we performed dilution series experiments (see Section 3.4.) by varying the concentrations of bis-imidazoline compounds in the HTRF assay used for the screening campaign (Table 1 and Figure 1A).
A three-fold serial dilution in DMSO was performed for each compound. Each concentration was tested in duplicate. For these experiments, Tag-lite CXCR4 and Tag-lite CXCR7 cell lines (5000 cells per well) were used. […] The IC50 values were determined with the Prism Software version 9 (Graph-Pad Software, San Diego, USA) using a one-site competitive binding model.
Data points are means ± SEM for three independent experiments.

[4] = tested on: HIV-1 X4-28 Env; assay: microbe, parasite or virus in culture; format: cell-based; conditions: Human immunodeficiency virus 1, 48 h, read-out: extrapolated IC50, infection with X4-28 Env
[5] = target: endogenous CXCR4 (Homo sapiens, UniProt P61073); assay: Displacement of 125I-labeled CXCL12 binding in blood mononuclear cells; conditions: blood mononuclear cells from a healthy donor, data not shown
endogenous CXCR4, sequence (P61073 whole entry): as above

[6] = tested on: HIV-1 NL4-3 Env; assay: microbe, parasite or virus in culture; format: cell-based; conditions: Human immunodeficiency virus 1, NL43, 48 h, read-out: extrapolated IC50, infection with NL4-3 Env
[7] = primary CD4+ T lymphocytes, NL4-3 and X4-28 Envs

Compound | IC50 [3] [µM] | anti-HIV-1 activity [1, 7] | inhibition of HTRF at high concentrations [3] | also measured
c1cc(CN2CCCNCCNCCCNCC2)ccc1CN1CCCNCCNCCCNCC1 [AMD3100, reference compound] |  |  |  | anti-HIV-1 activity [1]: by far the most potent antiviral activity of all tested molecules
C(CCCNC1=NCCN1)CCNC1=NCCN1 [mr20345] | 40.9 ± 23 |  |  | HTRF CXCR4-SDF1 Relative HTRF Ratio [2]: 2.78 (13.0)
C(CCCNC1=NCCN1)CCCNC1=NCCN1 [mr20346] | 1.85 ± 0.93 |  |  | HTRF CXCR4-SDF1 Relative HTRF Ratio [2]: 1.87 (12.6)
C(CCCCNC1=NCCN1)CCCNC1=NCCN1 [mr20347] | 0.35 ± 0.09 | not and no effect | fully inhibited HTRF | 
C(CCCCNC1=NCCN1)CCCCNC1=NCCN1 [mr20348] | 6.62 ± 4.31 |  |  | 
C(CCCCCNC1=NCCN1)CCCCNC1=NCCN1 [mr20349] | 0.47 ± 0.36 | observed | fully inhibited HTRF | IC50 [4]: 1100 nM; displacement of 125I-labeled CXCL12 binding [5]: confirmed; IC50 [6]: 30 µM
C(CCCCCCNC1=NCCN1)CCCCCNC1=NCCN1 [mr20350] |  | observed; also recorded: strongest anti-HIV-1 activity | fully inhibited HTRF | IC50 [4]: 720 nM; IC50 [6]: 2.6 µM
C(CCCCCNC1=NCCN1)CCCCCNC1=NCCN1 [mr34200] | 15.5 |  |  | 
